Experimental data: ChEMBL document CHEMBL5465560, “Selectivity Literature for EUbOPEN Chemogenomic Library” (2024)
Each block holds one compound with its values, some of them ahead of it.

How the values were obtained:
[1] = target: Activin receptor type-2A (Homo sapiens) (UniProt P27037); experiment: Selectivity interaction (KinomeScan (DiscoverX)) EUB0000666a ACVR2A; conditions: at 10 µM
[2] = target: Protein-tyrosine kinase 6 (Homo sapiens, UniProt Q13882); experiment: Selectivity interaction (KinomeScan (DiscoverX)) EUB0000666a PTK6; conditions: at 10 µM
Sequence of Protein-tyrosine kinase 6 (Q13882 whole entry, looked up, canonical isoform): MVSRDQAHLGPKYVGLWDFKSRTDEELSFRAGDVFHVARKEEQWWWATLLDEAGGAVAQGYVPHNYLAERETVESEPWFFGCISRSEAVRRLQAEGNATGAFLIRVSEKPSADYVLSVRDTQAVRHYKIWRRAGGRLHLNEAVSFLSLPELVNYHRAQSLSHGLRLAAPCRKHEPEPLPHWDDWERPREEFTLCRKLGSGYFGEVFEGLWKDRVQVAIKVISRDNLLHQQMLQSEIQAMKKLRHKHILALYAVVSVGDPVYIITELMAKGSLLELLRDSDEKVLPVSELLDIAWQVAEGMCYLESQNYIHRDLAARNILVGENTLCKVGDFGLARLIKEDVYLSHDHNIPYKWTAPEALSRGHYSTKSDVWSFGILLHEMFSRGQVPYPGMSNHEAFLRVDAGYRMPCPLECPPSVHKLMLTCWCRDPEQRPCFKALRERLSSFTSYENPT

[3] = target: Phosphatidylinositol 4,5-bisphosphate 3-kinase catalytic subunit beta isoform (Homo sapiens) (UniProt P42338); experiment: Selectivity interaction (KinomeScan (DiscoverX)) EUB0000877a PIK3CB; conditions: at 10 µM
Sequence of Phosphatidylinositol 4,5-bisphosphate 3-kinase catalytic subunit beta isoform (Homo sapiens) (P42338 whole entry, looked up, canonical isoform): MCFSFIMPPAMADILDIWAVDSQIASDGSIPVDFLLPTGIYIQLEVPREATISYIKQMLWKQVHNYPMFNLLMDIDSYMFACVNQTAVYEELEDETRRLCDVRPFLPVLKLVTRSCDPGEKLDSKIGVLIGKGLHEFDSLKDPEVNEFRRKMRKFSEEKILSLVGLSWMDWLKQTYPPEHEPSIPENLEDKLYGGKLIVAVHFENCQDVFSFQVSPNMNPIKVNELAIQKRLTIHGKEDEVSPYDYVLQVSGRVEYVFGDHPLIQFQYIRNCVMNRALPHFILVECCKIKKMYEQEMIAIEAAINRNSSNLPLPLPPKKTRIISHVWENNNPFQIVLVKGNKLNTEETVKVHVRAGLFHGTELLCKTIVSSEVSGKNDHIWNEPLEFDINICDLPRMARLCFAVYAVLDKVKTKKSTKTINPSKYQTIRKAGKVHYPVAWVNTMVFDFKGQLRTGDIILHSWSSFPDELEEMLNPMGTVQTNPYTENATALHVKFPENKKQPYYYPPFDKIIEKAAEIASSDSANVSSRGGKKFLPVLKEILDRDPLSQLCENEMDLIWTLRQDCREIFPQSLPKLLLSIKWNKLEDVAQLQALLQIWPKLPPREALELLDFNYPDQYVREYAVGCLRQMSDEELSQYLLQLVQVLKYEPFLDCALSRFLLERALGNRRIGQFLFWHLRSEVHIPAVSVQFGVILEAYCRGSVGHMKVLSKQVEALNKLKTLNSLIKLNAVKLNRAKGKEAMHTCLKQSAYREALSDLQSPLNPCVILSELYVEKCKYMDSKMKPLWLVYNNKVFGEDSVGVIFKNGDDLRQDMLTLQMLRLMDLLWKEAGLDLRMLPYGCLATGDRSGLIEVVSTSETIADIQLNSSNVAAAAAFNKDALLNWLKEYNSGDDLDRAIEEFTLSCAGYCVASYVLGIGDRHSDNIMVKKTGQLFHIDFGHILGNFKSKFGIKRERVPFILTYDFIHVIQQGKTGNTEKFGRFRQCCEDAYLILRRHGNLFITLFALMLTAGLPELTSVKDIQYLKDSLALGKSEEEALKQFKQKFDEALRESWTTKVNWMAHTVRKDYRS

[4] = target: T1, Activin receptor type-1 (Homo sapiens) (UniProt Q04771); conditions: at 10 µM
T1 sequence (whole entry): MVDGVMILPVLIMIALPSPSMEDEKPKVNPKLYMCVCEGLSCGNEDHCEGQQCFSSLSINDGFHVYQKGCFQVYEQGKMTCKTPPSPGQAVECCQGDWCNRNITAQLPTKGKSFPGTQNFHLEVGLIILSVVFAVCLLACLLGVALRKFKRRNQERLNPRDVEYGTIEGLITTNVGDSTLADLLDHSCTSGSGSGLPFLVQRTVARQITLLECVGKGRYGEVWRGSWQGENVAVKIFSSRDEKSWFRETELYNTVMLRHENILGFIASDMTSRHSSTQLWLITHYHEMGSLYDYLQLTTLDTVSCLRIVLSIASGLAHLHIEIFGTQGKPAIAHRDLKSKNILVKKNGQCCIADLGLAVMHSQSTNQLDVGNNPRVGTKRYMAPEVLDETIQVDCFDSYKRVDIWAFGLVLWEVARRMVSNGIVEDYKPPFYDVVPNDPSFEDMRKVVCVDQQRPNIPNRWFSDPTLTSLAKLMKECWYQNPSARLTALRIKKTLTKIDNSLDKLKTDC

[5] = system: Tyrosine-protein kinase ABL1 (Homo sapiens), P00519 [Q252H]; conditions: at 10 µM
[6] = target: Tyrosine-protein kinase SYK (Homo sapiens, UniProt P43405); experiment: Selectivity interaction (ActivX KiNativ screen (kinase selectivity in THP-1 cell lysates)) EUB0000639a SYK; format: subcellular; conditions: lysate, at 5 µM
[7] = target: Serine/threonine-protein kinase SIK3 (Homo sapiens) (UniProt Q9Y2K2); experiment: Selectivity interaction (KinomeScan (DiscoverX)) EUB0000595a SIK3; conditions: at 10 µM
[8] = target: Fibroblast growth factor receptor 4 (Homo sapiens, UniProt P22455); conditions: at 10 µM
Sequence of Fibroblast growth factor receptor 4 (P22455 22-802 limits assumed): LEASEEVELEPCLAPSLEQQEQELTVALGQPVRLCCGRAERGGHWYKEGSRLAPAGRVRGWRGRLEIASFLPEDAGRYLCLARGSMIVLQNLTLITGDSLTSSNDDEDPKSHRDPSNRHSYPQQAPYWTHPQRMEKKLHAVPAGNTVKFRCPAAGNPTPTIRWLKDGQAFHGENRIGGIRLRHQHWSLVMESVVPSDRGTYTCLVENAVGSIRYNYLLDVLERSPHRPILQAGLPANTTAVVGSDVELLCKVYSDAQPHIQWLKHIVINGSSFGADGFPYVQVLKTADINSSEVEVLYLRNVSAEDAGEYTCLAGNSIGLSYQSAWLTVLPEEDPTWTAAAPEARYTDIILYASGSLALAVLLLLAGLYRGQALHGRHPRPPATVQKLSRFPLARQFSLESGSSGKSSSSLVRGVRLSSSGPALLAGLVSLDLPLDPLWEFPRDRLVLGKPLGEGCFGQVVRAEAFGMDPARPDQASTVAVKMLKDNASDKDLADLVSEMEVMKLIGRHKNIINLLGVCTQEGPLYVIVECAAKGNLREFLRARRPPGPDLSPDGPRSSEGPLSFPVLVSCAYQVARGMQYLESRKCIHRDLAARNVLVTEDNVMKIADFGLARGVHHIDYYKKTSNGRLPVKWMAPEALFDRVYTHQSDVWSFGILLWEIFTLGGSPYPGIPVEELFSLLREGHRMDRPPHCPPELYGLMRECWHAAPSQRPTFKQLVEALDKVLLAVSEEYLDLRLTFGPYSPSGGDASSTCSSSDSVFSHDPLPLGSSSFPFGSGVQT

[9] = target: Mitogen-activated protein kinase 9 (Homo sapiens, UniProt P45984); conditions: at 10 µM
Sequence of Mitogen-activated protein kinase 9 (P45984 whole entry, looked up): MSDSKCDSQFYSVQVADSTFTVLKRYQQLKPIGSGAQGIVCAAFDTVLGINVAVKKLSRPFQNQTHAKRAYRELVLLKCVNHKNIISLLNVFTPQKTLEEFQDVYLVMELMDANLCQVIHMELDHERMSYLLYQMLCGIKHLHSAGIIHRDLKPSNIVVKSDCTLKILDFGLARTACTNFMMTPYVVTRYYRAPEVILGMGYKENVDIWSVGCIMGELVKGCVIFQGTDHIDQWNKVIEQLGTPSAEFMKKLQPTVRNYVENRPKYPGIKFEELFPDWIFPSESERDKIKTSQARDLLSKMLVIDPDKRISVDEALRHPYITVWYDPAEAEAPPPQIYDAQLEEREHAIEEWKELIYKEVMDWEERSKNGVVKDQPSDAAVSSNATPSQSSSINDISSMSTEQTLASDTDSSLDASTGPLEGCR

[10] = target: T2, Muscarinic acetylcholine receptor M1 (Homo sapiens) (UniProt P11229); experiment: Selectivity interaction (Panel of kinases, GPCRs, ion channels and transporters (enzymatic assay)) EUB0000223bCl CHRM1
T2 sequence (whole entry): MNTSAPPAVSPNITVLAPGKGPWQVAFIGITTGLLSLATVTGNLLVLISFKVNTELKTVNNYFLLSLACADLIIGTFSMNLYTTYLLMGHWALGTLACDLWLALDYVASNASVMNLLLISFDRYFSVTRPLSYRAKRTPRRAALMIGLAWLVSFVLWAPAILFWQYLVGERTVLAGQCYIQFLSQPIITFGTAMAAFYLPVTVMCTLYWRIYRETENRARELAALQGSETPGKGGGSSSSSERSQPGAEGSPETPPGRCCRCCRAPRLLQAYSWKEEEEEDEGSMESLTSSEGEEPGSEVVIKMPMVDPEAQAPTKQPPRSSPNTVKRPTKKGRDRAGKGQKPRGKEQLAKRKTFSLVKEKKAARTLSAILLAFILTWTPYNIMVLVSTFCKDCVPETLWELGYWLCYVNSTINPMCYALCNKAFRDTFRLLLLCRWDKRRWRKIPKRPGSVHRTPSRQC

[11] = target: Ribosomal protein S6 kinase beta-1 (Homo sapiens, UniProt P23443); experiment: Selectivity interaction (KinomeScan (DiscoverX)) EUB0000655a RPS6KB1; conditions: at 10 µM
Sequence of Ribosomal protein S6 kinase beta-1 (P23443 whole entry, looked up): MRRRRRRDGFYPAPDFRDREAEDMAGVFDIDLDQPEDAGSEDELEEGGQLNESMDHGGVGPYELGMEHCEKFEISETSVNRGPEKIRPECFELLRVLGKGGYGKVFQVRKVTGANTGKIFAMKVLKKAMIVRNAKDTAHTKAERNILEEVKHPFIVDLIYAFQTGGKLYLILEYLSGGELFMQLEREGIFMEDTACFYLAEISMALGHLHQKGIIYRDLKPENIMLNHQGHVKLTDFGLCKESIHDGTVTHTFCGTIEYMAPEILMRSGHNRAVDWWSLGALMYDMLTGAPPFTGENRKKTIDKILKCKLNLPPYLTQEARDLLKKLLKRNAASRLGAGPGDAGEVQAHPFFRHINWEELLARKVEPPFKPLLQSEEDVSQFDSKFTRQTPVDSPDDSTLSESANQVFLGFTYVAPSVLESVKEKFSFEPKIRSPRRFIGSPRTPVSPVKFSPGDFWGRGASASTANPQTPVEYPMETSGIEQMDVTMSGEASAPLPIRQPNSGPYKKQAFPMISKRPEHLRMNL

[12] = target: T3, 5-hydroxytryptamine receptor 1A (Homo sapiens) (UniProt P08908); experiment: Selectivity interaction (GPCR panel (PDSP screen)) EUB0001079a HTR1A; conditions: at 10 µM
T3 sequence (whole entry): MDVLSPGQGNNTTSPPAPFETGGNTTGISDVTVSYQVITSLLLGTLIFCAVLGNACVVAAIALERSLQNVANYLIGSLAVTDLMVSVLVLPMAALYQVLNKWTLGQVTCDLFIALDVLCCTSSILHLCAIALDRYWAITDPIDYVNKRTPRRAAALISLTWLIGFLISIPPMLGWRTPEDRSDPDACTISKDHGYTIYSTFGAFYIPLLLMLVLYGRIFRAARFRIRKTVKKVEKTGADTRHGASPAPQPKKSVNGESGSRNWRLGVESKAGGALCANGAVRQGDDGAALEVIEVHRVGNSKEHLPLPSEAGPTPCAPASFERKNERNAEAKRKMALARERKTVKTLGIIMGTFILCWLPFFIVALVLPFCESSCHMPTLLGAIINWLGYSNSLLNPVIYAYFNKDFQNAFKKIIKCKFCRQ

[13] = target: T4, Testis-specific serine/threonine-protein kinase 1 (Homo sapiens) (UniProt Q9BXA7); experiment: Selectivity interaction (KinomeScan (DiscoverX)) EUB0000618a TSSK1A; conditions: at 10 µM
T4 sequence (whole entry): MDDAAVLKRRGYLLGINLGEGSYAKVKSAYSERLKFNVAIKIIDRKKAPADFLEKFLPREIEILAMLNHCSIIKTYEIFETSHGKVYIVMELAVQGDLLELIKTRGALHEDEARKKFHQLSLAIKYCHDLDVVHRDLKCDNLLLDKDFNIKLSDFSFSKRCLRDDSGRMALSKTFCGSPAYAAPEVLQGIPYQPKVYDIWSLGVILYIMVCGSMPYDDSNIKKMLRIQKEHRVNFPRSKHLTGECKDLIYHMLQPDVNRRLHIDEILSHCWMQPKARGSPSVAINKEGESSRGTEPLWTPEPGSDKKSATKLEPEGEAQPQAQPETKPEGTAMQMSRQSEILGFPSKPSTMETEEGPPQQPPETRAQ

Sequence of Activin receptor type-2A (Homo sapiens) (P27037 whole entry): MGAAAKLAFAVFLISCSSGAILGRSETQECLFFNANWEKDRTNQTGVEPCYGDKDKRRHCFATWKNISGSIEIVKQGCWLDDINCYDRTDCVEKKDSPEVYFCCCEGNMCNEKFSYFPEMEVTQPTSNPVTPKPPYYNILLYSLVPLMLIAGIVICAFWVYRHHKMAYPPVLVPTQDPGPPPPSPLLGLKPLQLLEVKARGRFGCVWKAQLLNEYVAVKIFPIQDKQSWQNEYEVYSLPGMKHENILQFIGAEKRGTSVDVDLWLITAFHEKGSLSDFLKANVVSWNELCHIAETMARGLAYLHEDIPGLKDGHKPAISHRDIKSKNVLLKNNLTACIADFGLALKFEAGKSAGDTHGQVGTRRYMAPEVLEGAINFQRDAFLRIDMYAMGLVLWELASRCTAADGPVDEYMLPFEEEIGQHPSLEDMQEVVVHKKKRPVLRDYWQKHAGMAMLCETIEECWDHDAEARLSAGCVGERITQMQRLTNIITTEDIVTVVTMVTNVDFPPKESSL

SMILES: O=C(NOC[C@H](O)CO)c1ccc(F)c(F)c1Nc1ccc(I)cc1F
% of control [1]: 80%
% of control [2]: 46%

% of inhibition [3]: 98%
SMILES: CCC(=O)N1CC[C@H](Nc2ncnc3c2CN(c2cnc(OC)c(C(F)(F)F)c2)CC3)C1 [LENIOLISIB]

% of control [4]: 100%
% of control [5]: 100%
SMILES: CCN(CC)CCCCNc1ncc2cc(-c3cc(OC)cc(OC)c3)c(NC(=O)NC(C)(C)C)nc2n1

% of inhibition [6]: -8.7%
SMILES: CC[C@@H]1[C@H](F)C(=O)N[C@@H]1COc1nccc2cc(C(N)=O)c(OC)cc12 [ZIMLOVISERTIB]

SMILES: COCC(=O)NC/C=C/c1ccc2ncnc(Nc3ccc(Oc4ccc(C)nc4)c(C)c3)c2c1 [CP-724714]
% of control [7]: 76%
% of control [8]: 100%
% of control [9]: 53%

SMILES: COc1cc(C(=O)N2CC[C@@H](O)[C@@H](N)C2)cc2nc(-c3cc4ccccc4n3CC3CC3)n(C)c12
pXC50 [10]: 4.9 M

SMILES: CN(C)CCOc1ccc(-c2nc(-c3ccncc3)c(-c3ccc4c(c3)CC/C4=N\O)[nH]2)cc1
% of control [11]: 85%

SMILES: Nc1cnc(N2CCc3cc(S(=O)(=O)Nc4c(F)cc(Cl)cc4F)cc(N4CCCC4=O)c32)nc1 [TP-020n]
% of inhibition [12]: 4.45%

SMILES: O[C@H]1CC[C@H](Nc2ncc3nc(Nc4c(F)cc(F)cc4F)n([C@H]4CCOC4)c3n2)CC1
% of control [13]: 100%
